Reference: patent US5219884A, “Immunosuppressant” (Taito Co., Ltd., priority 1990, dated 1993)
Where two headings read alike, the source gives them in different places.

Experiments:
[1] = test system: IL2-dependent mouse cell line CTLL-2; assay: suppression of IL-2 induced 3H-thymidine incorporation of CTLL-2; assay type: cell-based; settings: 72 hrs, second run (control 30168 cpm)
CCRF-CEM = assay: in vitro; assay type: cell-based, human
HL60 = assay: in vitro; assay type: cell-based, human
in vitro = assay type: cell-based, human; settings: human, read-out: Suppression
U937 = assay: in vitro; assay type: cell-based, human
KB = assay: in vitro; assay type: cell-based, human
PC-14 = assay: in vitro; assay type: cell-based, human
K562 = assay: in vitro; assay type: cell-based, human
mouse L929 cells = assay: cytotoxicity to mouse L929 cells; assay type: cell-based; settings: 550 nm
[2] = cytotoxicity to mouse L929 cells; assay type: cell-based; settings: mouse, l929 cells, read-out: Suppression
[3] = cytotoxicity to tumor cell line MOLT4; assay type: cell-based, human; settings: human, molt4 cells, read-out: Suppression
Outline: (§1)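 Human tumour lines at 2×10^5 cells/ml in RPMI1640 with 20% FCS were mixed 1:1 with test solution and cultured 72 h at 37° C, 5% CO2. MTT colorimetry at 550 nm; percent suppression served as the cytotoxicity index.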

MOLT4 = assay: cytotoxicity to tumor cell line MOLT4; assay type: cell-based, human
Outline: as §1

CCCCCCC(=O)CCCCCC/C=C/CC1OC(=O)C(CO)(NC(C)=O)C1O (stereo not shown) [Example 11]
3H-thymidine uptake ([1]; 0.1 μg/ml): 33948 cpm | 3H-thymidine uptake ([1]; 1 μg/ml): 4876 cpm | inhibition at 0.1 µg/mL ([1]; Mus musculus, CTLL-2, 0.1 μg/ml, read-out: Suppression): 0% | inhibition at 1 µg/mL ([1]; Mus musculus, CTLL-2, 1 μg/ml): 84% | Absorbancy (CCRF-CEM; 0.1 μg/ml): 0.694 | Absorbancy (CCRF-CEM; 1.0 μg/ml): 0.663 | Absorbancy (CCRF-CEM; 10.0 μg/ml): 0.603 | Absorbancy (HL60; 0.1 μg/ml): 0.475 | Absorbancy (HL60; 1.0 μg/ml): 0.456 | Absorbancy (HL60; 10.0 μg/ml): 0.381 | cytotoxicity at 72 h (in vitro; ccrf-cem cells, 0.1 μg/ml): 0% | cytotoxicity at 72 h (in vitro; ccrf-cem cells, 1.0 μg/ml): 4.2% | cytotoxicity at 72 h (in vitro; ccrf-cem cells, 10.0 μg/ml): 12.9% | cytotoxicity at 72 h (in vitro; hl60 cells, 0.1 μg/ml): 9% | cytotoxicity at 72 h (in vitro; hl60 cells, 1.0 μg/ml): 12.6% | cytotoxicity at 72 h (in vitro; hl60 cells, 10.0 μg/ml): 27% | cytotoxicity at 72 h (in vitro; k562 cells, 0.1 μg/ml): 17.7% | cytotoxicity at 72 h (in vitro; k562 cells, 1.0 μg/ml): 12.5% | cytotoxicity at 72 h (in vitro; k562 cells, 10.0 μg/ml): 34.5% | cytotoxicity at 72 h (in vitro; kb cells, 0.1 μg/ml): 7% | cytotoxicity at 72 h (in vitro; kb cells, 1.0 μg/ml): 5.8% | cytotoxicity at 72 h (in vitro; kb cells, 10.0 μg/ml): 30.1% | cytotoxicity at 72 h (in vitro; pc-14 cells, 0.1 μg/ml): 6.5% | cytotoxicity at 72 h (in vitro; pc-14 cells, 1.0 μg/ml): 12.7% | cytotoxicity at 72 h (in vitro; pc-14 cells, 10.0 μg/ml): 40% | cytotoxicity at 72 h (in vitro; u937 cells, 0.1 μg/ml): 0% | cytotoxicity at 72 h (in vitro; u937 cells, 1.0 μg/ml): 0% | cytotoxicity at 72 h (in vitro; u937 cells, 10.0 μg/ml): 23% | Absorbancy (U937; 0.1 μg/ml): 0.598 | Absorbancy (U937; 1.0 μg/ml): 0.583 | Absorbancy (U937; 10.0 μg/ml): 0.449 | Absorbancy (KB; 0.1 μg/ml): 0.679 | Absorbancy (KB; 1.0 μg/ml): 0.688 | Absorbancy (KB; 10.0 μg/ml): 0.510 | Absorbancy (PC-14; 0.1 μg/ml): 0.443 | Absorbancy (PC-14; 1.0 μg/ml): 0.413 | Absorbancy (PC-14; 10.0 μg/ml): 0.284 | Absorbancy (K562; 0.1 μg/ml): 0.317 | Absorbancy (K562; 1.0 μg/ml): 0.337 | Absorbancy (K562; 10.0 μg/ml): 0.257 | Absorbancy (mouse L929 cells; 1 μg/ml): 0.710 | Absorbancy (mouse L929 cells; 10 μg/ml): 0.669 | Absorbancy (mouse L929 cells; 100 μg/ml): 0.047 | cytotoxicity at 48 h ([2]; 1 μg/ml): 0% | cytotoxicity at 48 h ([2]; 10 μg/ml): 0% | cytotoxicity at 48 h ([2]; 100 μg/ml): 91.8% | cytotoxicity at 72 h ([3]; 0.1 μg/ml): 0% | cytotoxicity at 72 h ([3]; 1.0 μg/ml): 0% | cytotoxicity at 72 h ([3]; 10.0 μg/ml): 11.7% | Absorbancy (MOLT4; 0.1 μg/ml): 0.182 | Absorbancy (MOLT4; 1.0 μg/ml): 0.150 | Absorbancy (MOLT4; 10.0 μg/ml): 0.128
